Read-outs that look alike come from different tables or passages of the source.
Columns and labels:
[1] = Plasma pharmacokinetics in rats after oral administration of Yizhi tablets, EPT or EPG (HPLC-ESI/MS); format: in vivo, Sprague-Dawley rats; conditions: for AUC(0-inf) / CL/F / Cmax / Tmax / MRT last / MRT inf / AUC(0-t): male, Sprague-Dawley; for MRT last: read-out: MRT(0–t) (converted); for MRT inf: read-out: MRT(0–∞) (converted)
Description: Male Sprague-Dawley rats (weight: 220 ± 30 g) were purchased from the animal laboratory centre at Tsinghua University (Beijing, China). All animals were maintained in an environmentally controlled room under controlled temperature (22–25°C) and relative humidity (50 ± 5%) on 12 h light/dark cycles (lights on from 08:00 to 20:00). Experiments were conducted in a specific pathogen-free (SPF) grade laboratory, according to the guidelines of the Guiding Principles for the Care and Use of Laboratory Animals approved by the Committee for Animal Experiments at Tsinghua University (Beijing, China). The animals were acclimated for one week before use. Standard diet and water were provided to the rats ad libitum.
Yizhi tablets were prepared by mixing Yizhi tablet powder (9 g) in 10 mL 5% CMC-Na with a magnetic stirring apparatus. The concentration of effective parts of tianma (EPT, total saponins from Gastrodiae) and gouteng (EPG, rhynchophylla alkaloids) was equivalent to that in a Yizhi tablet. The three different suspensions were shacked uniformly before administration.
The rats were randomly assigned to one of three groups (1–3), representing the groups administered with EPT, EPG, and Yizhi, respectively. Each group contained six rats. The rats fasted overnight with free access to water before dose administration. After a single dose was administered by oral gavage, blood samples (0.5 mL) were collected in heparinized tubes via the orbital vein at 0 min, 10 min, 20 min, 30 min, 45 min, 1 h, 2 h, 4 h, 6 h, 8 h, and 12 h. All blood samples were centrifuged at 3000 rpm for 15 min to collect plasma. The plasma samples obtained were stored at −20°C until analysis. Along with the plasma samples, quality control (QC) samples were distributed among calibrators and unknown samples in the analytical run. All of the blank samples used as controls were prepared by the same method as drug-containing samples.
To 200 μL of thawed plasma, 25 μL aqueous ammonia and 800 μL ether were added. The supernatant was separated and dried under nitrogen gas at 37°C after vortexing for 1 min and centrifuging at 10,000 g for 15 min at 4°C. The residues were reconstituted in 50 μL of methanol and centrifuged at 15,000 g for 15 min. A 20 μL aliquot of the supernatant was injected into the HPLC-MS system for analysis of RIN. To the residue, 800 μL methanol was added. The supernatant was separated and evaporated to dryness under nitrogen at room temperature after being vortexed for 3 min and centrifuged at 10,000 g for 15 min. The residue was reconstituted in 50 μL of the initial mobile phase and centrifuged at 15,000 g for 15 min. 20 μL aliquot of the supernatant was injected into the HPLC-MS system for analysis of GAS and HBA.
Yizhi tablets, EPT, and EPG were separately suspended in 0.5% carboxymethylcellulose solution and administered orally to six conscious rats at doses of 9 g/kg for Yizhi tablets, 5.4 g/kg for EPT, and 3.6 g/kg for EPG, respectively. Blood samples were collected from the retroorbital plexus of rats under light anaesthesia with ether. Blood samples were collected in microfuge tubes containing heparin as an anticoagulant at 0 min, 10 min, 20 min, 30 min, 45 min, 1 h, 2 h, 4 h, 6 h, 8 h, and 12 h after treatment. Plasma was harvested by centrifuging blood samples at 3500 ×g for 10 min and stored at −80°C until analysis. The concentrations of GAS, HBA, and RIN in plasma were determined as described above. QC samples were distributed among calibrators and samples in the analytical run to adjust the error.
The pharmacokinetic parameters, such as area under the plasma concentration-time curve (AUC), maximum plasma concentration (C max), corresponding time (T max) and half-life (T 1/2), plasma clearance (CL), mean residence time (MRT), and initial plasma concentration (C 0) for orally administered dose, were performed on each individual set using the software of Kinetica (Version 5.0, Thermo Electron Corp., MA, USA) by the noncompartmental model. […]

[2] = Stability of GAS, HBA and RIN spiked into rat plasma (HPLC-MS); format: physicochemical; conditions: for Stability (RE, %) 20°C/24 h / Stability (RE, %) Freeze-thaw (3 cycles) / Stability (RE, %) −80°C/20 days: rat plasma, n = 3; for stability spiked into rat plasma: room temperature (22–25°C) for 24 h, −80°C for 20 days, three freeze/thaw cycles
Description: The stability experiments on GAS, HBA, and RIN were performed at three concentrations of the QC samples, using three replicates at each concentration (10, 50, and 100 μg/mL for GAS and HBA and 1, 5, and 10 μg/mL for RIN). Short-term stability was determined after exposure of the spiked samples at room temperature for 24 h. The freeze/thaw stability was evaluated after three complete freeze/thaw cycles (−80°C) on consecutive days. Long-term stability was assessed after storage of the standard spiked plasma samples at −80°C for 20 days. Postextraction stability was determined after the extracted samples had been stored in the autosampler pending analysis at the temperature of the autoinjector (4°C) for 24 h. The analytes were considered stable in the biological matrix when 85–115% (RE) of the initial concentration was found.

[3] = in vivo, rat plasma, oral EPT 5.4 g/kg, n = 6
[4] = in vivo, rat plasma, oral Yizhi tablets 9 g/kg, n = 6
[5] = rat, in vivo, po, 9 g/kg, oral Yizhi tablets 9 g/kg, n = 6
[6] = rat, in vivo, po, 9 g/kg, text value matching the Yizhi tablet group (oral 9 g/kg)
[7] = rat plasma, oral EPT 5.4 g/kg, n = 6
[8] = rat plasma, oral Yizhi tablets 9 g/kg, n = 6
[9] = in vivo, rat plasma, oral EPG 3.6 g/kg, n = 6

SMILES | AUC(0-inf) [1, 4] [ng·h/mL] | CL/F [1, 4] [mL/min/kg] | Cmax [1, 4] [ng/mL] | Tmax [1, 4] [h] | MRT last [1, 4] [h] | MRT inf [1, 4] [h] | AUC(0-t) [1, 5] [ng·h/mL] | AUC(0-t) [1, 6] [ng·h/mL] | Stability (RE, %) 20°C/24 h ([2]; 10 μg/mL) [%] | Stability (RE, %) Freeze-thaw (3 cycles) ([2]; 10 μg/mL) [%] | Stability (RE, %) −80°C/20 days ([2]; 10 μg/mL) [%] | Stability (RE, %) 20°C/24 h ([2]; 50 μg/mL) [%] | Stability (RE, %) Freeze-thaw (3 cycles) ([2]; 50 μg/mL) [%] | Stability (RE, %) −80°C/20 days ([2]; 50 μg/mL) [%] | Stability (RE, %) 20°C/24 h ([2]; 100 μg/mL) [%] | Stability (RE, %) Freeze-thaw (3 cycles) ([2]; 100 μg/mL) [%] | Stability (RE, %) −80°C/20 days ([2]; 100 μg/mL) [%] | stability spiked into rat plasma [2] | other results
OCc1ccc(O[C@@H]2O[C@H](CO)[C@@H](O)[C@H](O)[C@H]2O)cc1 [GAS, Gastrodin] | 249000 | 3.5 ± 0.1 | 141000 ± 19000 | 0.75 | 2.69 | 3.29 | 230000 | 230000 | 9.35 | 5.36 | 4.38 | 3.17 | 4.12 | 6.95 | 3.93 | 8.26 | 8.01 | stable | AUC(0-inf) [1, 3]: 367000 ng·h/mL; CL/F [1, 3]: 2.32 ± 0.25 mL/min/kg; Cmax [1, 3]: 188000 ± 19300 ng/mL; Tmax [1, 3]: 0.361 h; MRT last [1, 3]: 2.03 h; MRT inf [1, 3]: 2.21 h; AUC(0-t) ([1]; rat, in vivo, po, 5.4 g/kg, oral EPT 5.4 g/kg, n = 6): 359000 ng·h/mL; MRT change when coadministered with Yizhi tablet ([1]; rat plasma, Yizhi tablet group versus EPT group): 1.32 fold; time of first of two successive maximum plasma concentrations ([1]; rat plasma, oral Yizhi tablets): 45 min; time of second of two successive maximum plasma concentrations ([1]; rat plasma, oral Yizhi tablets): 120 min
OCc1ccc(O)cc1 [HBA, p-hydroxybenzyl alcohol] | – | – | – | – | – | – | – | – | 4.69 | 2.65 | 4.58 | 2.65 | 4.65 | 5.63 | 3.17 | 7.03 | 7.15 | stable | AUC(0-inf) [1, 7]: 34700 ng·h/mL; AUC(0-t) [1, 7]: 27600 ng·h/mL; Cmax [1, 7]: 9120 ± 610 ng/mL; Tmax [1, 7]: 1 h; MRT last [1, 7]: 2.57 h; MRT inf [1, 7]: 3.98 h; AUC(0-inf) [1, 8]: 52200 ng·h/mL; AUC(0-t) [1, 8]: 37800 ng·h/mL; Cmax [1, 8]: 10400 ± 3020 ng/mL; Tmax [1, 8]: 0.917 h; MRT last [1, 8]: 4.44 h; MRT inf [1, 8]: 9.22 h; bioavailability in Yizhi tablet group compared with EPT alone ([1]; rat plasma, increased AUC, longer MRT (P < 0.01), higher C max): higher bioavailability
CC[C@H]1CN2CC[C@]3(C(=O)Nc4ccccc43)[C@@H]2C[C@@H]1/C(=C\OC)C(=O)OC [RIN, rhynchophylline] | 32000 | 2.18 ± 0.46 | 6500 ± 1440 | 4 | 3.72 | 4.59 | 29700 | 29700 | 9.35 | 4.56 | 5.49 | – | – | – | – | – | – | stable | AUC(0-inf) [1, 9]: 43400 ng·h/mL; CL/F [1, 9]: 1.55 ± 0.13 mL/min/kg; Cmax [1, 9]: 6170 ± 380 ng/mL; Tmax [1, 9]: 3.67 h; MRT last [1, 9]: 4.78 h; MRT inf [1, 9]: 5.59 h; AUC(0-t) ([1]; rat, in vivo, po, 3.6 g/kg, oral EPG 3.6 g/kg): 40200 ng·h/mL; AUC(0-t) ([1]; rat, in vivo, po, 3.6 g/kg, oral EPG 3.6 g/kg, n = 6): 40200 ng·h/mL; delay of T max ([1]; rat plasma, Yizhi tablets versus EPG alone): 0.333 h; Stability (RE, %) 20°C/24 h ([2]; 1 μg/mL): 8.63%; Stability (RE, %) Freeze-thaw (3 cycles) ([2]; 1 μg/mL): 7.18%; Stability (RE, %) −80°C/20 days ([2]; 1 μg/mL): 6.88%; Stability (RE, %) 20°C/24 h ([2]; 5 μg/mL): 7.65%; Stability (RE, %) Freeze-thaw (3 cycles) ([2]; 5 μg/mL): 8.08%; Stability (RE, %) −80°C/20 days ([2]; 5 μg/mL): 8.04%
